Test results taken from ChEMBL document CHEMBL3112491, “3-(5-)-Amino-o-diarylisoxazoles: regioselective synthesis and antitubulin activity” (2014).

Legend:
Format in all cases: functional
HL-60(TB) = assay: Growth inhibition of human HL-60(TB) cells after 48 hrs by sulforhodamine B assay; details: HL-60, 48 h
NCI-H23 = assay: Growth inhibition of human NCI-H23 cells after 48 hrs by sulforhodamine B assay; details: NCI-H23, 48 h
BT-549 = assay: Growth inhibition of human BT549 cells after 48 hrs by sulforhodamine B assay; details: BT-549, 48 h
NCI-H226 = assay: Growth inhibition of human NCI-H226 cells after 48 hrs by sulforhodamine B assay; details: NCI-H226, 48 h
786-0 = assay: Growth inhibition of human 786-0 cells after 48 hrs by sulforhodamine B assay; details: 786-0, 48 h
SF-295 = assay: Growth inhibition of human SF295 cells after 48 hrs by sulforhodamine B assay; details: SF-295, 48 h
M14 = assay: Growth inhibition of human M14 cells after 48 hrs by sulforhodamine B assay; details: M14, 48 h
SN12C = assay: Growth inhibition of human SN12C cells after 48 hrs by sulforhodamine B assay
[1] = Growth inhibition of human NCI-ADR-RES cells after 48 hrs by sulforhodamine B assay
[2] = Growth inhibition of human UO31 cells after 48 hrs by sulforhodamine B assay; details: UO-31, 48 h
NCI-H522 = assay: Growth inhibition of human NCI-H522 cells after 48 hrs by sulforhodamine B assay; details: NCI-H522, 48 h
HT-29 = assay: Growth inhibition of human HT-29 cells after 48 hrs by sulforhodamine B assay; details: HT-29, 48 h
HCT-15 = assay: Growth inhibition of human HCT15 cells after 48 hrs by sulforhodamine B assay; details: HCT-15, 48 h
MDA-MB-435 = assay: Growth inhibition of human MDA-MB-435 cells after 48 hrs by sulforhodamine B assay; details: MDA-MB-435, 48 h
Paracentrotus lividus [3] = assay: Microtubule destabilizing activity in sea urchin free-swimming blastula assessed as embryo spinning treated at 9 to 10 hrs post-fertilization measured after 0.15 to 15 hrs
[4] = Growth inhibition of human Hs 578T cells after 48 hrs by sulforhodamine B assay
NCI-H460 = assay: Growth inhibition of human NCI-H460 cells after 48 hrs by sulforhodamine B assay; details: NCI-H460, 48 h
SK-OV-3 = assay: Growth inhibition of human SKOV3 cells after 48 hrs by sulforhodamine B assay; details: SK-OV-3, 48 h
Paracentrotus lividus [5] = assay: Antimitotic activity in sea urchin fertilized egg assessed as cleavage arrest treated at 8 to 20 mins post-fertilization measured at 2.5 to 5.5 hrs post-fertilization
[6] = Growth inhibition of human RXF393 cells after 48 hrs by sulforhodamine B assay; details: RXF 393, 48 h
SF-268 = assay: Growth inhibition of human SF268 cells after 48 hrs by sulforhodamine B assay; details: SF-268, 48 h
K562 = assay: Growth inhibition of human K562 cells after 48 hrs by sulforhodamine B assay; details: K562, 48 h
[7] = Growth inhibition of human SF539 cells after 48 hrs by sulforhodamine B assay; details: SF-539, 48 h
MDA-MB-468 = assay: Growth inhibition of human MDA-MB-468 cells after 48 hrs by sulforhodamine B assay; details: MDA-MB-468, 48 h
SK-MEL-2 = assay: Growth inhibition of human SK-MEL-2 cells after 48 hrs by sulforhodamine B assay; details: SK-MEL-2, 48 h
IGROV-1 = assay: Growth inhibition of human IGROV1 cells after 48 hrs by sulforhodamine B assay; details: IGROV-1, 48 h
[8] = Growth inhibition of human EKVX cells after 48 hrs by sulforhodamine B assay
MCF7 = assay: Growth inhibition of human MCF7 cells after 48 hrs by sulforhodamine B assay; details: MCF7, 48 h
SW-620 = assay: Growth inhibition of human SW620 cells after 48 hrs by sulforhodamine B assay; details: SW-620, 48 h
T47D = assay: Growth inhibition of human T47D cells after 48 hrs by sulforhodamine B assay
HOP-62 = assay: Growth inhibition of human HOP62 cells after 48 hrs by sulforhodamine B assay; details: HOP-62, 48 h
OVCAR-3 = assay: Growth inhibition of human OVCAR3 cells after 48 hrs by sulforhodamine B assay; details: OVCAR-3, 48 h
A549 = assay: Growth inhibition of human A549/ATCC cells after 48 hrs by sulforhodamine B assay; details: A549, 48 h
MDA-MB-231 = assay: Growth inhibition of human MDA-MB-231 cells after 48 hrs by sulforhodamine B assay; details: MDA-MB-231, 48 h
OVCAR-8 = assay: Growth inhibition of human OVCAR8 cells after 48 hrs by sulforhodamine B assay; details: OVCAR-8, 48 h
Paracentrotus lividus [9] = assay: Antimitotic activity in sea urchin fertilized egg assessed as cleavage alteration treated at 8 to 20 mins post-fertilization measured at 2.5 to 5.5 hrs post-fertilization
SK-MEL-28 = assay: Growth inhibition of human SK-MEL-28 cells after 48 hrs by sulforhodamine B assay; details: SK-MEL-28, 48 h
PC-3 = assay: Growth inhibition of human PC3 cells after 48 hrs by sulforhodamine B assay; details: PC-3, 48 h
RPMI-8226 = assay: Growth inhibition of human RPMI8226 cells after 48 hrs by sulforhodamine B assay; details: RPMI-8226, 48 h
A498 = assay: Growth inhibition of human A498 cells after 48 hrs by sulforhodamine B assay; details: A498, 48 h
HCT-116 = assay: Growth inhibition of human HCT116 cells after 48 hrs by sulforhodamine B assay; details: HCT-116, 48 h
SNB-19 = assay: Growth inhibition of human SNB19 cells after 48 hrs by sulforhodamine B assay; details: SNB-19, 48 h
[10] = Growth inhibition of human HCC2998 cells after 48 hrs by sulforhodamine B assay; details: HCC 2998, 48 h
DU-145 = assay: Growth inhibition of human DU145 cells after 48 hrs by sulforhodamine B assay; details: DU-145, 48 h
CCRF-CEM = assay: Growth inhibition of human CCRF-CEM cells after 48 hrs by sulforhodamine B assay
SK-MEL-5 = assay: Growth inhibition of human SK-MEL-5 cells after 48 hrs by sulforhodamine B assay; details: SK-MEL-5, 48 h
SR = assay: Growth inhibition of human SR cells after 48 hrs by sulforhodamine B assay
U-251 = assay: Growth inhibition of human U251 cells after 48 hrs by sulforhodamine B assay; details: U-251, 48 h
MOLT-4 = assay: Growth inhibition of human MOLT4 cells after 48 hrs by sulforhodamine B assay; details: MOLT-4, 48 h
UACC-62 = assay: Growth inhibition of human UACC62 cells after 48 hrs by sulforhodamine B assay; details: UACC-62, 48 h
KM12 = assay: Growth inhibition of human KM12 cells after 48 hrs by sulforhodamine B assay; details: KM12, 48 h
SNB-75 = assay: Growth inhibition of human SNB75 cells after 48 hrs by sulforhodamine B assay; details: SNB-75, 48 h
COLO 205 = assay: Growth inhibition of human COLO205 cells after 48 hrs by sulforhodamine B assay; details: COLO 205, 48 h
[11] = Growth inhibition of human OVCAR4 cells after 48 hrs by sulforhodamine B assay; details: OVCAR-4, 48 h
LOX IMVI = assay: Growth inhibition of human LOXIMVI cells after 48 hrs by sulforhodamine B assay
TK-10 = assay: Growth inhibition of human TK10 cells after 48 hrs by sulforhodamine B assay; details: TK-10, 48 h
NCI-H322M = assay: Growth inhibition of human NCI-H322M cells after 48 hrs by sulforhodamine B assay
CAKI-1 = assay: Growth inhibition of human CAKI-1 cells after 48 hrs by sulforhodamine B assay; details: CAKI-1, 48 h
ACHN = assay: Growth inhibition of human ACHN cells after 48 hrs by sulforhodamine B assay
[12] = Growth inhibition of human OVCAR5 cells after 48 hrs by sulforhodamine B assay; details: OVCAR-5, 48 h
Malme-3M = assay: Growth inhibition of human MALME-3M cells after 48 hrs by sulforhodamine B assay
[13] = Growth inhibition of human UACC257 cells after 48 hrs by sulforhodamine B assay; details: UACC-257, 48 h

COc1ccc(-c2c(-c3cc(OC)c4c(c3)OCO4)noc2N)cc1 showed a GI50 (HL-60(TB)) of 35.1 nM, a GI50 (NCI-H23) of 37.8 nM and a GI50 (BT-549) of 3920 nM. For the same compound, the GI50 (NCI-H226) was 121 nM, the GI50 (786-0) was 73.5 nM and the GI50 (SF-295) was 22.8 nM. The GI50 (M14) was 32.3 nM, the GI50 (SN12C) was 217 nM and the GI50 [1] was 19.1 nM. For the same compound, the GI50 [2] was 82.2 nM, the GI50 (NCI-H522) was less than 10 nM and the GI50 (HT-29) was 34.6 nM. For the same compound, the GI50 (HCT-15) was 48.2 nM, the GI50 (MDA-MB-435) was less than 10 nM and the EC (Paracentrotus lividus [3]) was 0.05 µM. It also gave a GI50 [4] of 32.4 nM, a GI50 (NCI-H460) of 35.2 nM and a GI50 (SK-OV-3) of 31.8 nM. The EC (Paracentrotus lividus [5]) was 0.002 µM, the GI50 [6] was 22.3 nM and the GI50 (SF-268) was 148 nM. The GI50 (K562) was 19.3 nM, the GI50 [7] was 38.1 nM and the GI50 (MDA-MB-468) was 18.7 nM. The GI50 (SK-MEL-2) was 25.9 nM, the GI50 (IGROV-1) was 99.7 nM and the GI50 [8] was 10700 nM. It also gave a GI50 (MCF7) of 31.5 nM, a GI50 (SW-620) of 29.4 nM and a GI50 (T47D) of 39.4 nM. It also gave a GI50 (HOP-62) of 30.2 nM, a GI50 (OVCAR-3) of 21.9 nM and a GI50 (A549) of 59.6 nM. The GI50 (MDA-MB-231) was 124 nM, the GI50 (OVCAR-8) was 58.5 nM and the EC (Paracentrotus lividus [9]) was 0.0005 µM. The GI50 (SK-MEL-28) was 13.6 nM, the GI50 (PC-3) was 44 nM and the GI50 (RPMI-8226) was 49.9 nM. The GI50 (A498) was 22 nM, the GI50 (HCT-116) was 46.3 nM and the GI50 (SNB-19) was 65.8 nM. It also gave a GI50 [10] of 118 nM, a GI50 (DU-145) of 47.2 nM and a GI50 (CCRF-CEM) of 36.3 nM. The GI50 (SK-MEL-5) was 29.8 nM, the GI50 (SR) was less than 10 nM and the GI50 (U-251) was 30.8 nM. For the same compound, the GI50 (MOLT-4) was 71.4 nM, the GI50 (UACC-62) was 59.7 nM and the GI50 (KM12) was 18.1 nM. It also gave a GI50 (SNB-75) of 33.9 nM, a GI50 (COLO 205) of 34.1 nM and a GI50 [11] of 114 nM. For the same compound, the GI50 (LOX IMVI) was 57.9 nM.

COc1ccc(-c2noc(N)c2-c2cc(OC)c3c(c2)OCO3)cc1 showed a GI50 (HL-60(TB)) of 1290 nM, a GI50 (TK-10) of 6360 nM and a GI50 (NCI-H23) of 2820 nM. For the same compound, the GI50 (BT-549) was 3400 nM, the GI50 (NCI-H226) was 13700 nM and the GI50 (786-0) was 5460 nM. For the same compound, the GI50 (SF-295) was 2800 nM, the GI50 (M14) was 1300 nM and the GI50 (SN12C) was 4100 nM. The GI50 [1] was 563 nM, the GI50 [2] was 5900 nM and the GI50 (NCI-H522) was 1020 nM. The GI50 (HT-29) was 1330 nM, the GI50 (HCT-15) was 620 nM and the GI50 (MDA-MB-435) was 237 nM. The EC (Paracentrotus lividus [3]) was greater than 5 µM, the GI50 [4] was 2810 nM and the GI50 (NCI-H460) was 2870 nM. The GI50 (SK-OV-3) was 3410 nM, the EC (Paracentrotus lividus [5]) was 2 µM and the GI50 [6] was 2360 nM. The GI50 (SF-268) was 5000 nM, the GI50 (K562) was 404 nM and the GI50 [7] was 1690 nM. It also gave a GI50 (MDA-MB-468) of 9660 nM, a GI50 (IGROV-1) of 4860 nM and a GI50 (MCF7) of 798 nM. The GI50 (SW-620) was 726 nM, the GI50 (T47D) was 2750 nM and the GI50 (HOP-62) was 2850 nM. The GI50 (OVCAR-3) was 2630 nM, the GI50 (A549) was 2730 nM and the GI50 (MDA-MB-231) was 2350 nM. For the same compound, the GI50 (OVCAR-8) was 3620 nM, the EC (Paracentrotus lividus [9]) was 0.2 µM and the GI50 (SK-MEL-28) was 6790 nM. For the same compound, the GI50 (PC-3) was 3290 nM, the GI50 (RPMI-8226) was 2910 nM and the GI50 (A498) was 1310 nM. The GI50 (HCT-116) was 2440 nM, the GI50 (SNB-19) was 20400 nM and the GI50 (NCI-H322M) was 6660 nM. The GI50 [10] was 1960 nM, the GI50 (DU-145) was 3110 nM and the GI50 (CCRF-CEM) was 1020 nM. The GI50 (SK-MEL-5) was 3360 nM, the GI50 (SR) was 454 nM and the GI50 (MOLT-4) was 1280 nM. It also gave a GI50 (CAKI-1) of 2780 nM, a GI50 (ACHN) of 6210 nM and a GI50 [12] of 5010 nM. For the same compound, the GI50 (UACC-62) was 5100 nM, the GI50 (KM12) was 1580 nM and the GI50 (SNB-75) was 1810 nM. It also gave a GI50 (Malme-3M) of 9660 nM, a GI50 (COLO 205) of 1850 nM and a GI50 [11] of 22800 nM. For the same compound, the GI50 [13] was 6680 nM.
